Source: patent US20250057793A1, “BENZOIC ACID SALTS FOR TREATMENT OF NERVOUS SYSTEM INJURIES AND DISORDERS” (The United States Government as represented by the …, priority 2021, published 2025)

Legend:
[1] = tested on: mice with traumatic brain injury (TBI); assay: Remyelination in corpus callosum of mice with TBI (PLP/A2B5 double-labeling); assay type: in vivo, mouse; conditions: 50 mg/kg body weight/day oral gavage
Description: FIG. 4 are images of the corpus collosum in mice showing the levels of proteolipid protein (PLP) and A2B5, a marker of oligodendroglial progenitor cells (OPC), in the experimental conditions after 21 days. Oral administration of sodium benzoate (NaB), but not sodium formate (NaFO), stimulates remyelination in mice with traumatic brain injury (TBI). Mice (n=6 per group) were induced moderate TBI by controlled cortical impact (CCI). Starting from 2 hours after TBI, mice were treated with NaB and NaFO (50 mg/kg body weight/day; mixed with water) orally via gavage. After 21 d of treatment, brain sections were double-labeled for PLP and A2B5.
Proteolipid protein (PLP) is a marker of oligodendrocytes and A2B5 is a marker of oligodendroglial progenitor cells (OPC). After 21 days of treatment, brain sections were double-labeled with antibodies against PLP and A2B5.

TBI mice = assay: Novel object recognition (NOR) test in TBI mice; assay type: in vivo, mouse; conditions: 21 days post-injury, 50 mg/kg/day oral gavage
Description: This test evaluates the animal's ability to recognize the novel object in the environment and monitor short-term memory. Initially, the mice were placed in a square novel box (20 in. long×8 in. high) surrounded with an infrared sensor. Two plastic toys (2.5-3 in. size) that varied in color, shape, and texture were placed in specific locations in the environment 18in. away from each other. The mice were able to freely explore the environment and objects for 15 mins and were then placed back into their individual home cages. After 30 min intervals, the mice were placed back into the environment, with the 2 objects in the same locations, but now one of the familiar objects was replaced with a third novel object. The mice were again allowed to freely explore both objects for 15 min. The familiar and novel objects were thoroughly cleaned with a mild detergent after each testing session.

SMILES: O=C([O-])c1ccccc1.[Na+] [NaB, Sodium benzoate]
- level of PLP in corpus callosum ([1]; 21 days of treatment): markedly increased
- number of OPCs (A2B5 positive) in corpus callosum ([1]; 21 days of treatment): decreased
- remyelination ([1]; 21 d of treatment): stimulates

SMILES: O=C(OCC(COC(=O)c1ccccc1)OC(=O)c1ccccc1)c1ccccc1 [GTB, Glyceryl Tribenzoate]
- time spent with novel object (exploration time) (TBI mice): significantly more time
